US20200385423A1, “USE OF EXCITATORY NERVE INJURY-RELATED POLYPEPTIDE IN PREVENTING, ALLEVIATING OR TREATING PAIN” (Biocells (Beijing) Biotech Co., Ltd., priority 2016, published 2020)

Legend:
Format in all cases: in vivo, rat
SD rats [1] = assay: Needling experiment (vonFrey probe) in rats with sciatic nerve ligation; details: for paw lifting threshold due to needling at surgical side after administration: P5 0.2 μg/kg caudal vein, ibuprofen 50 mg/kg intragastric
Method: Eighteen male SD rats of 240-260 g (purchased from Huafukangcheng Co., Ltd.) were selected as experimental rats, and divided into three groups with six rats in each group for a needling experiment, including a group administered with the polypeptide at a dose of 0.2 μg/kg, a normal saline group and a positive control drug group (ibuprofen, 50 mg/kg).
(§1) 4.0 chromic catguts (purchased from Shandong Boda Medical Products Co., Ltd.) were immersed into normal saline (purchased from Shijiazhuang Four Medicine Co., Ltd., National Pharmaceutical Standard H13023200) for 30 minutes for softening. Rats were shaved in the middle of their thighs, and wiped with iodine. Wound at 1 cm below the epidermis was created with a scissor, and then a J31060 hemostat was used to tear the biceps femoris. The sciatic nerve was thus exposed at the middle of the thighs. The end proximal to the leg was the trigeminal sciatic nerve. The sciatic nerve at the middle of the thighs was gently ligated four times with the 4.0 chromic catguts. The force was deemed appropriate if muscles near the ligation site slightly trembled. The adjacent ligation sites were 1 mm apart. Then muscles and epidermal tissues were sutured separately.
(§2) Before the experiment, the rats with successful surgery in the test group were injected via caudal vein with Peptide P5 in normal saline (dose at 0.2 μg/kg). Rats in normal saline group were intraperitoneally injected with 0.3 mL of normal saline. The positive drug group was administered via intragastric infusion with ibuprofen suspension (purchased from Shanghai Qiangsheng Pharmaceutical Co., Ltd., National Pharmaceutical Standard H19991011) at a dose of 50 mg/kg.
Fourteen days after surgery, the rats in the administration groups were tested before administration and 10 min\70 min\130 min after administration. The experimental rats were placed in a plexiglass observation chamber to acclimate the environment for 5 minutes until the rats no longer looked around. The ZS-CTY foot needling system (purchased from Beijing Zhongshi Di Chuang Technology Development Co., Ltd.) was connected to a win7 32-bit computer. The test software was opened to calibrate the zero point of the instrument, and then calibrate again after a 10 g weight was added. The vonFrey probe was used to slowly and gently stimulate the middle parts of the testing hind paws of the rats to observe the paw withdrawal reaction of the rats. […] The paw withdrawal reaction of rats due to physical activity was excluded. The reaction was recorded twice at each time point, and averaged to obtain paw lifting force thresholds (in g) due to needling. The foot needling system (purchased from Beijing Zhongshi Di Chuang Technology Development Co., Ltd.; lot. number: 20160101060001) was adjusted to zero with a 10 g weight, there was still a fundamental read fluctuation when the bottom of the rats' paws was needled. The fluctuation was generally between +3 and +5 g, which should be subtracted from the final value. If there was still a baseline, it should be removed.
EXCEL's T-test function (two-tailed variance) was used to analyze the statistical difference in paw lifting force thresholds due to needling between the untreated side and surgical side in the experimental rats to evaluate whether or not the modeling was successful. The difference among the needling pain force thresholds before administration and at each time point after administration was then analyzed to evaluate the pharmaceutical efficacy and effect duration.

SD rats [2] = assay: Hot plate experiment in rats with sciatic nerve ligation; details: for paw lifting time threshold due to heating pain at surgical side after administration: P5 0.2 μg/kg caudal vein, ibuprofen 50 mg/kg intragastric
Method: Eighteen male SD rats of 240-260 g (purchased from Huafukangcheng Co., Ltd.) were selected as experimental rats, and divided into three groups with six rats in each group for a hot plate experiment, including a group administered with Polypeptide P5 at a dose of 0.2 μg/kg, a group administered with normal saline and a group administered with positive control drug (ibuprofen, 50 mg/kg). Screening was conducted before the experiment.
as §1, §2
Hot plate experiments were performed on rats 7 days after surgery. Rats were feed properly, and the indoor environment was maintained at about 25° C. The temperature of the YLS-6B intelligent hot plate instrument (purchased from Beijing Zhongshi Di Chuang Technology Development Co., Ltd.) was set at about 55° C. The rats were placed on the hot plate instrument in a closed, detachable, and transparent plexiglass jar, and the time of occurrence of the hind paw licking or jump reaction was recorded. If there no reaction was observed from the rats with administration 20 seconds after placement in the jar, the SD rats were taken out to avoid scalding the paws due to too long heating. The pain threshold of such rats was calculated as 20 seconds. Each rat was tested twice in succession with the interval of at least 30 seconds. The average of results was calculated.
At the end of the experiment, the heating pain response time (i.e., pain threshold in second) of rats in the normal saline control group and individual drug-administered groups before administration and 10 min, 70 min, and 130 min after administration was recorded.
EXCEL's T-test function (two-tailed variance) was used to analyze the statistical difference between the paw lifting time thresholds due to heating pain of pre-modeling and post-modeling experimental rats to evaluate whether or not the modeling was successful. The difference among the heating pain time thresholds before administration and at each time point after administration was then analyzed to evaluate the pharmaceutical efficacy.

rats = assay: Acute toxicity tests on rats; details: dose of 1000 mg/kg body weight
Method: Acute toxicity tests were performed on rats.

[3] = P5 0.2 μg/kg, ibuprofen 50 mg/kg

Row | SMILES | paw lifting threshold due to needling at surgical side after administration (SD rats [1]; 10 min after administration) | paw lifting threshold due to needling at surgical side after administration (SD rats [1]; 70 min after administration) | paw lifting threshold due to needling at surgical side after administration (SD rats [1]; 130 min after administration) | duration of therapeutic (analgesic) effect, needling experiment (SD rats [1]; [3]) | paw lifting threshold due to needling at surgical side before administration (SD rats [1]; baseline 14 days after surgery, before administration) | paw lifting threshold due to needling, healthy side (control) (SD rats [1]; healthy side of the group, control value) | paw lifting time threshold due to heating pain at surgical side after administration (SD rats [2]; 10 min after administration) | paw lifting time threshold due to heating pain at surgical side after administration (SD rats [2]; 70 min after administration) | paw lifting time threshold due to heating pain at surgical side after administration (SD rats [2]; 130 min after administration) | duration of therapeutic (analgesic) effect, hot plate experiment (SD rats [2]; [3]) | paw lifting time threshold due to heating pain, surgical side before administration (SD rats [2]; baseline 7 days after surgery, before administration, hot plate about 55° C.) | paw lifting time threshold due to heating pain, pre-modeling (control) (SD rats [2]; baseline of the group before modeling, hot plate about 55° C.) | acute toxicity (rats)
1 | CC(C)Cc1ccc(C(C)C(=O)O)cc1 (stereo not shown) [ibuprofen] | 46.24 g | 36.21 g | 38.88 g | < 130 min | 28.72 g | 73.65 g | 5.74 s | 4.64 s | 4.19 s | < 130 min | 3.95 s | 12.5 s | 
2 | CC[C@H](C)[C@H](NC(=O)[C@H](CCC(=O)O)NC(=O)[C@@H](NC(=O)[C@H](CC(=O)O)NC(=O)[C@H](CC(C)C)NC(=O)[C@H](CC(C)C)NC(=O)[C@H](CCCCN)NC(=O)[C@H](CCC(=O)O)NC(=O)[C@H](Cc1ccc(O)cc1)NC(=O)[C@H](CCCNC(=N)N)NC(=O)[C@H](CCCNC(=N)N)NC(=O)[C@H](CCCNC(=N)N)NC(=O)[C@H](CCC(N)=O)NC(=O)[C@H](CCCNC(=N)N)NC(=O)[C@H](CCCNC(=N)N)NC(=O)[C@H](CCCCN)NC(=O)[C@H](CCCCN)NC(=O)[C@H](CCCNC(=N)N)NC(=O)CNC(=O)[C@@H](N)Cc1ccc(O)cc1)[C@@H](C)O)C(=O)O [Polypeptide P5] |  |  |  |  |  |  |  |  |  |  |  |  | no lethal effect and other obvious toxic side effects
